Laboratory results taken from US10538515B2, “Isatin-derived compounds, use of the compounds for the treatment of AIDS and method of treatment using these compounds” (FUNDAÇÄO OSWALDO CRUZ, priority 2016, dated 2020).

Legend:
[1] = tested on: Suptl cells (T-lymphocyte cell line); experiment: Cytotoxicity assay (MTT); assay type: cell-based; conditions: 50% cytotoxic concentration, 72 hours, MTT; read-out: CC50
Procedure: The T-lymphocyte cell line (Suptl) was cultured in an RPMI 1640 medium (GIBICO). The cultures were supplemented with 10% Fetal Bovine Serum (SFB; HyClone, Logan, Utah, USA), 100 U/mL of penicillin and […] of streptomycin, and incubated at 37° C., in an atmosphere of 5% CO2. Virus stocks were prepared using the methodology described by Souza and Denizot (SOUZA, T. M. L; RODRIGUES, D. Q.; […], V. F.; MARQUES, I. P.; DE SOUZA, M. C. B. V.; […], I. C. P. P.; BOU-HABIB, D. C; FONTES, C. F. L. Characterization of HIV-1 enzyme reverse transcriptase inhibition by the compound 6-chloro-1.4-dihydro-4-oxo-1-(β-D-ribofuranosyl) quinoline-3-carboxylic acid through kinetic and in silico studies. Current HIV Research, v. 7, No 3, page 327-335, 2009. DENIZOT, F.; LANG, R. Rapid colorimetric assay for cell growth and survival. Modifications to the tetrazolium dye procedure giving improved sensitivity and reliability. The Journal of Immunological Methods, v. 89, No 2, page 271-277, 1986).
. They were then run through an MTT assay (3-(4,5-dimethylazol-2-yl)-2.5-diphenyl tetrazolium bromide) in order to analyze cell induction infeasibility. MTT is a colorimetric method that measures mitochondrial dehydrogenase activity based on the ability of live cells to reduce 3-(4,5-methylazol-2-yl)-2.5-diphenyl tetrazolium bromide salt in the product. A […] solution of 3-(4,5-dimethylthiazol-2-yl)-2.5-diphenyl tetrazolium bromide (1 mg/ml) (MTT, Sigma) was thus added to the cells, kept in Dulbecco's Modified Eagle's medium (DMEM) without serum. The MTT was removed after three hours and, after adding […] of isopropanol acid (0.04N HCl in isopropanol), the optical density (OD) was determined using a wavelength range of 570 to 690 nm, according to KUO et al (KUO, Y. C; CHEN, C. C; TSA, W. J.; HO, Y. H. Regulation of type 1 herpes simplex virus replication in vero cells by Psychotriaserpens: relationship to gene expression, DNA replication, and protein synthesis. Antiviral Research, v. 51, No 2, pages 95 to 109, 2001). The dye coloring has different optical densities, depending on mitochondrial metabolism after treating cells with different concentrations of the new derivatives or the absence thereof. The 50% cytotoxic concentration (CC50) was calculated through linear regression analysis from the dose-response curve obtained from experimental data.

[2] = biological target: T1, recombinant HIV-1 reverse transcriptase (RTHXB2) (Human immunodeficiency virus type 1 group M subtype B, UniProt P04585); experiment: Reverse transcriptase inhibition activity (RDDP, [3H]dTTP incorporation); assay type: biochemical; conditions: for IC50: 50% inhibitory concentration, mean of three independent experiments, read-out: CI50 (the source's name)
T1 construct: The enzyme is derived from a polyprotein encoded by the virus, processed by the viral protease
Procedure: Reverse Transcriptase Inhibition Activity
The RDDP activity was determined in 50 mM Tris HCl (pH 7.8), 6 mM MgCl2, 1 mM dithiothreitol, 50 mM KCl, 5 μM dTTP, […] poly (rA) oligo (dT) template primer (Pharmacia, Piscataway, N.J., USA) and 3 U of enzyme (one unit is the enzyme concentration incorporating dTTP […] per minute per mg of enzyme at 37° C. under standard conditions). The reaction isotope dilutions were prepared at 2 μCi of [3H] dTTP (49 Ci/mmol)/2,7μ dTTP. The reaction was initiated at 37° C., incubated for 30 minutes and halted with 0.5M EDTA. The precipitate was collected on Whatman 81 filter paper and washed with 0.1 M sodium phosphate. The incorporated nucleotides were measured by liquid scintillation. The 50% inhibitory concentration (Ciso) was determined by linear regression analysis of the dose-response curve obtained from experimental data. The polymerization reaction was conducted in the presence and absence of test substances, as well as the presence and absence of standards.
All tests were conducted on three separate occasions. At least three independent experiments were performed and triplicates were run for each concentration.

SMILES	CC50 [1]	IC50 [2]	IS ([2]; CC50 / CI50)
Cc1ccc2c(c1)C(F)(F)C(=O)N2Cc1cn(C2CC(n3cc(C)c(=O)[nH]c3=O)OC2CO)nn1 (centres unmarked) [IIIb, 1-(4-(4-((3,3-difluor-5-methyl-2-oxoindolin-1-yl)methyl)-1H-1,2,3-triazole-1-yl)-5-(hydroxymethyl)tetrahydrofuran-2-yl)-5-methylpyrimidine-2.4(1H,3H)-dione]	> 100 µM	3.2 µM	–
CCOP(=O)(Cn1cc(CN2C(=O)C(F)(F)c3ccccc32)nn1)OCC [IIId, diethyl ((4-((3,3-difluor-2-oxoindolin-1-yl)methyl)-1H-1,2,3-triazole-1-yl)methyl) phosphonate]	1500 µM	1.2 µM	1247
